{"source": "patent US5298508A", "about": "“Irreversible inhibitors of adenosine receptors” (priority 1992, dated 1994)", "key": {"central A1 receptors [1]": {"target": "T1, central A1 receptors (Bos taurus, UniProt P28190)", "T1 construct": "A1 -adenosine receptors in membranes form calf brain; from tissue; host or cells: calf brain membranes", "T1 sequence (P28190 1-326)": "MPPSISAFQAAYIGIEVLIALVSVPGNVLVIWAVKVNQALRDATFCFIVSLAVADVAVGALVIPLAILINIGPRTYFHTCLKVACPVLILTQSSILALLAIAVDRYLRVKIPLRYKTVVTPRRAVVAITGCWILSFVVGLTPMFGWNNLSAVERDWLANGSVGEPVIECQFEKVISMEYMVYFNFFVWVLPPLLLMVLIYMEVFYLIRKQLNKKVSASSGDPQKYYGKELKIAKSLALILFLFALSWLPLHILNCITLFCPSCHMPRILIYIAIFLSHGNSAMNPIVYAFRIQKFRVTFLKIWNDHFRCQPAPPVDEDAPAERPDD", "test": "inhibition of radioligand binding at central A1 receptors, calf brain membranes", "source_text": "^b against [^125 I]APNEA (i.e. N^6\n^b against [^125 I]APNEA;\nThe compounds, at concentrations relative to the Ki -values obtained, were screened for the ability to inhibit competitive binding of the radioligands [^3 H]PIA to rat brain membranes and [^3 H]XAC to bovine brain membranes, a shown in Table 1."}, "rat brain membranes": {"target": "T2, rat brain membranes (Rattus norvegicus, UniProt P25099)", "T2 construct": "A1 -adenosine receptors in rat brain membranes; from tissue; host or cells: rat brain membranes", "T2 sequence (P25099 1-326)": "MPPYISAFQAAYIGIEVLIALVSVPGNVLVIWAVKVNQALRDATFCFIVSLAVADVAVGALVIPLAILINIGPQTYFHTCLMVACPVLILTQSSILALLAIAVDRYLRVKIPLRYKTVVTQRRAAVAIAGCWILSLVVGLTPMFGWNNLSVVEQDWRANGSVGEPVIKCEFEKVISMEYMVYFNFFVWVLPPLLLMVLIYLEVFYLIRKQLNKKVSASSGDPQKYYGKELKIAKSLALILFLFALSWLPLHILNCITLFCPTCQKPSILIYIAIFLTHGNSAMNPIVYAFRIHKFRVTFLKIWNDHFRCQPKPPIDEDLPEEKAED", "test": "inhibition of [3H]XAC binding to rat brain membranes (blocking experiments)"}, "A1 adenosine receptors": {"target": "T3, A1 adenosine receptors (Rattus norvegicus, UniProt P25099)", "T3 construct": "A1 adenosine receptors in rat cerebral cortex membranes; from tissue; host or cells: rat cerebral cortex membranes", "T3 sequence (P25099 1-326)": "T2 sequence (P25099 1-326)", "test": "inhibition of binding of [3H]N6-phenylisopropyladenosine ([3H]PIA) to A1 adenosine receptors in rat cerebral cortex membranes", "method": "Ukena et al., FEBS Letters 209;122, 1986.\nFor the biochemical assays, stock solutions of xanthines in the millimolar concentration range in dimethylsulfoxide were prepared and stored frozen. The solutions were warmed to 50° C. prior to dilution in aqueous medium. […] Acad. Sci. USA, 83:4089, 1986. Inhibition of binding by a range of concentrations of a xanthine or adenosine derivative was assessed in triplicate in at least three separate experiments."}, "central A1 receptors [2]": {"target": "T4, central A1 receptors (Rattus norvegicus, UniProt P25099)", "T4 construct": "A1 -adenosine receptors in rat brain membranes; from tissue; host or cells: rat brain membranes", "T4 sequence (P25099 1-326)": "T2 sequence (P25099 1-326)", "assay_type": "binding"}, "A1-adenosine receptors [3]": {"test_system": "A1-adenosine receptors", "test": "irreversible inhibition of [3H]XAC binding sites after one hour incubation and washout, bovine brain membranes", "set-up": "species or system bovine (calf)"}, "stability to storage": {"test": "stability to storage", "assay_type": "physicochemical", "settings": "result in words", "method": "A modification of the procedure of Newman et al., J. Med. Chem. 30: 1901, 1987, was used. In this procedure, 1,3-phenylenediamine, 0.211 grams, 1.95 mmol, was dissolved in 80 ml chloroform. Thirty ml water and 0.38 gram, 4.5 mmol, sodium bicarbonate was added, and the mixture was stirred vigorously. After ten minutes, 0.4 ml, 5.2 mmol of freshly distilled thiophosgene was added. After one hour, the phases were separated, and the organic layer was dried over sodium sulfate and evaporated. The residue was triturated with ether:petroleum ether, 1:1, and filtered. The filtrate was evaporated, leaving the product as a white solid (0.30 g, 81% yield), melting at 50.5°-51° C."}, "A1-adenosine receptors [4]": {"test_system": "A1-adenosine receptors", "test": "covalent labeling of solubilized central A1 receptor preparation, SDS electrophoresis", "assay_type": "binding", "settings": "tritiated 4b, SDS gel, with or without high concentration of R-PIA", "from_the_text": "An SDS electrophoresis gel separated proteins from a solubilized central A1 receptor preparation, pretreated with compound 4b (lane 1)."}, "[5]": {"test": "chemical reactivity towards primary amines (thin layer chromatography)", "assay_type": "physicochemical", "settings": "ethylene diamine in molar excess, TLC"}}, "note": "Where two headings read alike, the source gives them in different places."}
{"molecule": "CCCn1c(=O)c2nc(-c3ccc(OCC(=O)NCCN=C(S)Nc4ccc(N=C=S)cc4)cc3)[nH]c2n(CCC)c1=O", "note": "[Compound 4b]", "values": [{"measurement": "Ki", "setting": "central A1 receptors [1]", "result": 1, "unit": "nM"}, {"measurement": "Ki", "setting": "rat brain membranes", "result": 22, "unit": "nM"}, {"measurement": "Ki", "setting": "A1 adenosine receptors; Table I, rat, against [3H]PIA, read-out: Ki at central A1 receptors, rat", "result": "6.6 ± 1.31", "unit": "nM"}, {"measurement": "remaining activity at 0.1 µM", "setting": "central A1 receptors [2]; 1 h, read-out: remaining receptor binding sites after treatment (of initial density)", "result": 34, "unit": "%"}, {"measurement": "irreversible inhibition of A1-adenosine receptors, rat brain membranes", "setting": "central A1 receptors [2]; rat brain, result in words", "result": "irreversibly inhibits A1 -adenosine receptors in membranes form calf brain and from rat brain in a dose-dependent manner"}, {"measurement": "inhibition at 0.1 µM", "setting": "central A1 receptors [2]; read-out: % inhib (conc)", "result": 63, "unit": "%"}, {"measurement": "irreversible inhibition of central A1-adenosine receptors", "setting": "central A1 receptors [2]; result in words", "result": "behave pharmacologically as irreversible inhibitors of central A1 -adenosine receptors"}, {"measurement": "adenosine receptor binding sites irreversibly inhibited", "setting": "A1-adenosine receptors [3]; 500 nM, one hour incubation, bovine brain membranes, [3H]XAC binding", "result": 90, "unit": "%"}, {"measurement": "irreversible inhibition of A1-adenosine receptors, calf brain membranes", "setting": "A1-adenosine receptors [3]; calf/bovine brain, result in words", "result": "irreversibly inhibits A1 -adenosine receptors in membranes form calf brain and from rat brain in a dose-dependent manner"}, {"measurement": "stability to storage", "setting": "stability to storage", "result": "stable to storage at -20 °C"}, {"measurement": "covalent labeling of A1-adenosine receptor", "setting": "A1-adenosine receptors [4]", "result": "Specific labeling of the receptor (MW approximately 40,000)"}, {"measurement": "reactivity towards primary amines", "setting": "[5]", "result": "quantitatively reactive towards primary amines"}]}
{"molecule": "S=C=Nc1cccc(N=C=S)c1", "note": "[Compound 5a, 1,3-phenyldiisothiocyanate]", "values": [{"measurement": "stability to storage", "setting": "stability to storage", "result": "stable to storage at room temperature for at least several weeks"}]}
{"molecule": "O=C(Cc1ccc(NC(=O)Cc2ccc(Nc3ncnc4c3ncn4[C@@H]3O[C@H](CO)[C@@H](O)[C@H]3O)cc2)cc1)NCCNC(=S)Nc1cccc(N=C=S)c1", "note": "[Compound 28]", "values": [{"measurement": "Ki", "setting": "central A1 receptors [1]", "result": 0.1, "unit": "nM"}, {"measurement": "Ki", "setting": "A1 adenosine receptors", "result": 0.86, "unit": "nM"}, {"measurement": "inhibition at 0.05 µM", "setting": "central A1 receptors [2]; read-out: % inhib (conc)", "result": "> 80", "unit": "%"}, {"measurement": "irreversible inhibition of central A1-adenosine receptors", "setting": "central A1 receptors [2]; result in words", "result": "behave pharmacologically as irreversible inhibitors of central A1 -adenosine receptors"}]}
{"molecule": "C[C@H](Cc1ccccc1)Nc1ncnc2c1ncn2[C@@H]1O[C@H](CO)[C@@H](O)[C@H]1O", "note": "[R-PIA, reference compound]", "values": [{"measurement": "covalent labeling of A1-adenosine receptor", "setting": "A1-adenosine receptors [4]", "result": "blocks the irreversible ligand"}]}
{"molecule": "CCCn1c(=O)c2[nH]c(-c3ccc(OCC(=O)NCCNC(=S)Nc4ccc(NC(=S)NCCN)cc4)cc3)nc2n(CCC)c1=O", "note": "[ethylene diamine adduct]", "values": [{"measurement": "Ki", "setting": "rat brain membranes; rat brain membranes, [3H]XAC", "result": 18, "unit": "nM"}]}
